# According to patent US11940444B2, “Method of stabilizing molecules without refrigeration using water soluble polymers and applications thereof in performing chemical reactions” (priority 2013, dated 2024):
# Columns and labels:
# [1] = ATCh stability (Ellman assay reagents); assay type: physicochemical; conditions: several days in the refrigerator and in a fume hood with no protection
# Procedure: When tested in solution, with the following amounts of reagents were used: • i. 15 uL ATCh (300 uM), 1 uL AChE (10 or 250 U/L) • ii. 50 uL of 500 uM DTNB • iii. 34 uL Tris
# Acetylthiocholine (ATCh) is an unstable molecule, and will hopefully be stabilized on paper. However, after several tests were performed, it was noted that after being left in the refrigerator for several days, and left in a fume hood with no protection against hydrolyzation, the ATCh was still stable when tested. The most likely reason for the continued activity of the ATCh is due to the Tris buffer it was dissolved in being evaporated, and the ATCh in a solid (or powdered) form is stable. Accordingly, it should be reliable to store the ATCh as a powder form, preferably inside of a soluble (pullulan) capsule.
# Luciferase = molecular target: T1, Luciferase (Photinus pyralis, UniProt P08659); assay: ATP detection assay with luminescent pills; assay type: biochemical, Firefly
# T1 construct: purchased Sigma-Aldrich
# Procedure: The sensitivity of the luciferase assay was also investigated. To determine the detection limit of the assay, different ATP buffers were prepared with concentration ranging from 0 pM to 1000 pM and tested it with luminescent pills.
# Acetylcholinesterase = conditions: Michaelis rate law, literature (Sadar and Laidler 1974); cited from earlier work
# AChE = AChE (Electrophorus electricus, UniProt O42275); assay: Pesticide tests in Eppendorf tubes (AChE/IDA color change); assay type: biochemical; conditions: No. 1: malathion 10-2 mol/L, 5 μL AChE, 250 mg/mL pullulan, 30 μL, incubation 15 min
# Procedure: Three trials were conducted with fresh malathion (from Bioninterfaces Institute), which was diluted with Tris buffer to a concentration of 10-2 mol/L. A control sample was also done with 5 μL of AChE and 250 mg/mL pullulan to ensure that a color change would occur. The color change was initially green (˜2 minutes), then became a blue color which increased in intensity over time.
# Information about the contents and the results of each Eppendorf tube test with pesticides is presented below. A control test was performed with 5 μL of AChE and L of dH2O with 5 μL of IDA/methanol, and the color change to blue-green was very quick.
# [2] = AChE stability over time in pullulan (reaction rate with IDA, absorbance at 605 nm); assay type: physicochemical
# Procedure: In order to quantify the protection that pullulan provides to AChE over time, it was attempted to create a set of samples (40) which will be tested over time. Each sample (cast into a 600 μL eppendorf tube) contains: • i. 40 μL of 200 mg/mL pullulan solution • ii. μL of AChE (250 U/L)
# Each sample tube was allowed to dry, then was sealed and placed into a plastic bag and stored at ambient conditions (˜20° C.). At selected time points, the activity of the solution was tested by measuring absorbance over time, and finding the associated reaction rate (corresponding to the activity of the enzyme). To measure the activity, three (3) samples were taken (to establish triplicate repeats), and 195 μL of Tris buffer (100 mM, pH=8.0) was added to each Eppendorf tube and allowed to dissolve the […]. The resulting solution was then added to a 96 well plate, and absorbance was measured continuously at 605 nm after the addition of 5 μL of 80 mM IDA.
# [3] = Long-term stability of AChE and IDA tablets stored at room temperature; assay type: physicochemical
# Procedure: To test the ability of pullulan to retain IDA activity, 10 μL of 40 mM IDA and 40 μL of 120 g/L pullulan in water were mixed and casted in a polypropylene mold with wells with a size of 3 mm in diameter×3 mm in depth. The solution was air-dried overnight at 21° C. and 48% RH; tablet formation was considered not fully completed if the tablet could not be removed from the bottom of the well. […] To test IDA activity, 199 μL of Tris-HCl (100 mM, pH 8) was used to dissolve the pill and 1 μL of fresh 250 U/mL AChE was added. The solution was then transferred to a 96-well plate and the absorbance of the developing blue color was measured at A605 on a TECAN Infinite M200 Pro microtiter plate reader.
# To test the ability of pullulan to retain AChE activity, 1 μL of 250 U/mL AChE and 40 μL of 120 g/L pullulan were mixed and casted into tablets. The solution was air-dried overnight at 21° C. and 48% RH; tablet formation was considered not fully completed if the tablet could not be removed from the bottom of the well; […] To test AChE activity, 195 μL of Tris-HCl (100 mM, pH 8) was used to dissolve the tablet and 5 μL of fresh 80 mM IDA was added. The solution was then transferred to a 96-well plate and the absorbance was measured at A605 on TECAN Infinite M200 Pro microtiter plate reader.
# [4] = Loss of AChE activity as a function of temperature (30 min heat treatment); assay type: physicochemical; conditions: 30-minute heat treatment at 50° C. or above
# Procedure: To test the ability of pullulan to retain AChE activity, 1 μL of 250 U/mL AChE and 40 μL of 120 g/L pullulan were mixed and casted into tablets. The solution was air-dried overnight at 21° C. and 48% RH; tablet formation was considered not fully completed if the tablet could not be removed from the bottom of the well; and the resulting tablets were kept at room temperature for different lengths of time before being tested. To test AChE activity, 195 μL of Tris-HCl (100 mM, pH 8) was used to dissolve the tablet and 5 μL of fresh 80 mM IDA was added. The solution was then transferred to a 96-well plate and the absorbance was measured at A605 on TECAN Infinite M200 Pro microtiter plate reader.
# The loss of AChE activity, however, is attributed to thermal denaturation. To further examine the role of pullulan in stabilizing AChE, activity of AChE was monitored as a function of temperature. For this experiment, native (unencapsulated) AChE and the corresponding pullulan tablet were treated at a given temperature for 30 min, followed by activity assessment at room temperature. […] In stark contrast, AChE tablets retained ca. 90% of their initial activity even after a 30-minute incubation at 90° C.
# [5] = Comparison of AChE activity with different concentrations of pullulan after 2 weeks; assay type: physicochemical; conditions: AChE in 125 and 250 mg/mL pullulan, 2 weeks age
# Procedure: To determine the effect the concentration of pullulan has on the maintenance of the AChE enzyme two samples of 2 weeks age were tested (125 and 250 mg/mL). […] More trials will be conducted at 1 week intervals to determine if there is a noticeable color intensity difference over time.
# [6] = Stability of 'all-in-one' luminescent pills at room storage condition; assay type: physicochemical
# Procedure: All reagents for the luciferase assay except for adenosine triphospate (ATP) were casted in a single pullulan pill. For the pullulan pills aqueous solutions of 10 mM Luciferin, […], 27 mM Coenzyme A (CoA), 170 mM Dithiothreitol (DTT), 10 mM Ethylenediaminetetraacetic acid (EDTA), 107 mM MgCO3, and 267 mM MgSO4 were prepared. 200 μL of each solution was added to 8 mL of 12 w/v % Pullulan solution. Lastly, for each pill 47 μL of the final solution was pipetted onto a PET film and dried in a glove box under nitrogen. The casted pills were then stored at room temperature.
# A buffer solution containing ATP was prepared to test the activity of the luciferase pills. For the buffer solution, 16 mL of water was added to 2 mL of 2.5 mM ATP and 2 mL of 200 mM Tricine and the pH was adjusted to pH 7.8.
# Once the pills were completely dried, they were collected in dark bottles. The pills were stored at room temperature and the activity of the pills was tested over time. On the day the pills were prepared, the activity of the fresh pullulan and reagent solution was tested. 47 μL of the solution and 100 μL of the buffer were added to a 96 well-plate and the luminescence was measured using the TECAN M1000. On subsequent days, the activity of the pills was measured by placing a single pill into a well and 100 μL of ATP buffer. Each test was performed with three repeats.
# [7] = Testing IDA capsules and pullulan films (IDA protection); assay type: physicochemical
# Procedure: 15 μL of IDA dissolved in methanol was added to a pullulan capsule (cast in an eppendorf tube lid), and sealed with a 5 mL (50 mg/mL, 3.5 cm petri dish) PVA film using a PVA glue solution. Another capsule was prepared with IDA in a powdered form. The capsules were left to determine if the PVA will serve as an oxygen barrier to protect the IDA from oxidation over a period of time
# In order to determine if pullulan works to stabilize IDA when the IDA is mixed into the pullulan solution, a solution of 300 mg/mL pullulan was mixed, and 5 μL of IDA dissolved in methanol was added to each 30 μL of sample.
# Five samples were cast (total volume of 35 μL) into the caps of 0.6 mL Eppendorf microcentrifuge tubes and left to dry. The activity of the IDA will be measured by: • i. checking for a pink/red color change, which indicates the IDA is hydrolysed or oxidized • ii. testing with AChE to ensure that a blue color change still results Pesticide Tests
# Previously explored was the addition of IDA (solution and powder form) to two PVA capsules. 5 uL of IDA dissolved in methanol was added to one, and IDA in powder form was added to the other.
# Also tested was one of the capsules with IDA solution cast into a pullulan film (in the lid of a 0.6 mL eppendorf tube). […]
# T1 sequence (P08659 whole entry): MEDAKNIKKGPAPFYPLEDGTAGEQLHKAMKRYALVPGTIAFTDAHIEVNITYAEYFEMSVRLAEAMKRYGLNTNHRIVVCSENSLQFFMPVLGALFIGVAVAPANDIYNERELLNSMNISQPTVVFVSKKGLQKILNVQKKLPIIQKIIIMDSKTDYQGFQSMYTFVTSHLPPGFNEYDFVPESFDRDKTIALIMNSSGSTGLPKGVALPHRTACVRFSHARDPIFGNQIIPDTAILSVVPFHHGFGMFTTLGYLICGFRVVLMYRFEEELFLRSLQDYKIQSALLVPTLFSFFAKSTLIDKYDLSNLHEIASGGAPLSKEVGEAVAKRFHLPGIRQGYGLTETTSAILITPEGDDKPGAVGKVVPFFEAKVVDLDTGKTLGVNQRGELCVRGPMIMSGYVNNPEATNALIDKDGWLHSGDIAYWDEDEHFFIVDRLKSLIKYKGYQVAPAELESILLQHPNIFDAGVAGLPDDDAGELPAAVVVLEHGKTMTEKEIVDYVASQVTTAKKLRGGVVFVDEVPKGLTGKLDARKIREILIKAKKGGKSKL
# Chain of AChE (O42275 24-633): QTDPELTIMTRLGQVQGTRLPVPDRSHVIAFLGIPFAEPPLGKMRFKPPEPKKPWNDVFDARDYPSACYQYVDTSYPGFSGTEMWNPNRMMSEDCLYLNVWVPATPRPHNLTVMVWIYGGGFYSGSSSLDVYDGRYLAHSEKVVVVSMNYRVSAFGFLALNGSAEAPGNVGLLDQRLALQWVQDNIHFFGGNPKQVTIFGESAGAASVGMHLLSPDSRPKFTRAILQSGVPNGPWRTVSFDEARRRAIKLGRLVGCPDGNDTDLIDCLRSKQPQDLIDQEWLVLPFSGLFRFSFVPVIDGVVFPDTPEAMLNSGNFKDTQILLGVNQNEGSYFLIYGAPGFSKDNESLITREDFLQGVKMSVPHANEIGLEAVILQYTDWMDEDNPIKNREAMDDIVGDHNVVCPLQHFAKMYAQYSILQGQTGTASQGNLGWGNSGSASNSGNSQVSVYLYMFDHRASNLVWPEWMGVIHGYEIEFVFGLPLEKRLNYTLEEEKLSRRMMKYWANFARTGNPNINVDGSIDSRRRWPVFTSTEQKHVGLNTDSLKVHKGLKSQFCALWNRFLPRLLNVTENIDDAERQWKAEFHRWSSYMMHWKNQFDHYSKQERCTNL
molecule,measurement,setting,value
"CC(=O)SCC[N+](C)(C)C [ATCh, Acetylthiocholine]",stability of ATCh,[1],still stable
"Nc1ncnc2c1ncn2[C@@H]1O[C@H](COP(=O)(O)OP(=O)(O)OP(=O)(O)O)[C@@H](O)[C@H]1O [ATP, Adenosine triphosphate]",limit of detection of ATP concentration,"Luciferase; at 3a above background, tricine buffer",16 pM
same,limit of detection as amount of ATP,Luciferase; in 100 uL added to the pill,1.6 fmol
CC(=O)Oc1cn(C)c2ccccc12 [N-methylindoxyl acetate],Km,Acetylcholinesterase,2580 µM
same,kc,Acetylcholinesterase,320 s⁻¹
CCOC(=O)CC(SP(=S)(OC)OC)C(=O)OCC (centres unmarked) [malathion],Result (color change),AChE,IDA/methanol. No color change at 5 minutes.
Acetylcholinesterase [AChE],activity as compared to a fresh sample,"[2]; AChE cast in 200 mg/mL pullulan, stored at ambient conditions (~20 °C), over 30 days",approximately 63%
same,activity of AChE left out without pullulan,"[2]; without any pullulan, left out for 24 hours",completely inactivated
same,time to become completely inactive,[3]; stored in solution at room temperature,≤ 3 days
same,activity after heat treatment,[4],completely inactive
same,activity of the enzyme over two weeks,[5],not much decreased
Luciferase,loss of activity in buffer,[6]; same components stored in buffer solution,loses its activity in buffer solution in few hours
same,activity of enzyme alone in pullulan pills,[6]; stored at room temperature,active even after four months
indoxyl acetate [IDA],complete inactivation,[3]; in solution at room temperature,completely inactive within a week
same,loss of activity,"[3]; in solution at room temperature, within one day",70%
same,time protected from hydrolyzation/oxidation,[7]; IDA solution cast into a pullulan film,~2 weeks
same,IDA stability in PVA capsules,"[7]; IDA solution or powder in PVA capsules, tested with AChE",kept stable over a period of two weeks
